From US20170290774A1, “NEUROKININ-1 RECEPTOR ANTAGONIST COMPOSITION FOR TREATMENT OF DISEASES AND CONDITIONS OF THE RESPIRATORY TRACT” (PLUS VITECH, S.L., priority 2014, published 2017)

What was measured:
MMP-7 = assay: Immunohistochemistry of MMP-7 in respiratory tract tissue of sodium hypochlorite aerosol-treated rabbits; format: in vivo, New Zealand albino rabbits
Text: (§1) It is known that the factors TGF-α, TGF-β 1, TGF-β 2, TGF-β 3, SPARC, MMP-3; MMP-7, MMP-9, MMP-11, MMP-13 and MMP-14, TGF-β, NF-kB, EGF, MMP-9, VEGF and TNF-α which are produced by lung cells (pneumocytes, fibroblasts and vascular endothelial cells) and inflammatory cells (macrophages, lymphocytes and polymorphonuclear leukocytes) are involved in the pathophysiology and development of said respiratory tract diseases. […] Herein, 27 New Zealand albino rabbits (New Zealand White Rabbit) with an initial average weight about 3 kg were used in this example. All subjects were administered an aerosol of a solution consisting of a mixture of water and sodium hypochlorite (35 g sodium hypochlorite per liter of water) at a rate of 5 mL of said solution by inhalation three times a day for 7 days (days 1 to 7 of experimentation). Subsequently, from days 3 to 7, a group of 3 rabbits (Group 1) was administered an oral dose of 10 mg/kg body weight per day, another group of 3 rabbits (Group 2) was administered an oral dose of 40 mg/kg body weight per day, a third group (Group 3) was administered an oral dose of 80 mg/kg body weight per day and a fourth group (Group 4) was administered an oral dose of 100 mg/kg body weight per day. […] This mixture was administered as an aerosol by inhalation, also from days 3 to 7, to a group of 3 rabbits (group 5) at a dose of 0.05 mg/kg body weight per day, to another group of three rabbits (Group 6) at a dose of 0.1 mg/kg body weight per day, to another group of three rabbits (Group 7) at a dose of 0.2 mg/kg body weight per day and to another group of three rabbits (Group 8) at a dose of 0.4 mg/kg body weight per day. A placebo consisting only of olive oil was administered from days 3 to 7 to a control group of 3 rabbits (placebo group). In parallel, 3 rabbits were kept under identical conditions but were not administered any treatment nor the aforementioned sodium hypochlorite solution (control group). […] On day 7 of the experiment all animals were euthanized and necropsied. […] Samples were taken at the peripheral level of the lung parenchyma, just below the pleural surface. Tissue samples were also taken from the nasal cavity, pharynx, larynx and bronchi. Immunohistochemistry studies were performed for all samples to evaluate the levels of the markers TGF-α, TGF-β 1, TGF-β 2, TGF-β 3 SPARC, MMP-3; MMP-7, MMP-9, MMP-11, MMP-14, TGF-β, TNF-α and VEGF. In said immunohistochemistry studies, a sample of each sample was dehydrated by treatment with increasing concentrations of ethanol and finally xylene. Subsequently said dried samples were embedded in paraffin, thus creating a block. Said paraffin blocks were cut on a microtome to a thickness of 5 μm, and the resulting sections (slices) were placed on slides suitable for conducting immunohistochemistry techniques. Subsequently, the sections were deparaffinised by immersion in xylene and then rehydrated through immersion in a series of solutions containing decreasing concentrations of ethanol and, finally, water. […] The samples were then allowed to cool to room temperature over 10 minutes. Endogenous peroxidase activity was blocked by treatment with 3% hydrogen peroxide over 30 min at room temperature. […] In order to verify the expression of NK1 receptors, the cell samples were incubated in the presence of anti-NK1 antibodies ([…], Sigma-Aldrich) diluted 1:1000 at 4° C. overnight. After this time they were washed in 0.05M Tris buffer at room temperature. Subsequently, Envision System-HRP (Dako) reagents were added for 30 min at room temperature. Once this time had expired, the samples were again washed with 0.05 M Tris buffer, and immunoreactivity was visualized by light microscopy with a chromogenic solution with 3,3'-diaminobenzidine (DAB+; Dako, USA). In order to differentiate the cell nuclei, these were lightly stained with haematoxylin. Samples that were not incubated with the primary antibody, but wherein this was replaced by a non-immune serum were used as negative controls. […]

TGFα = assay: Immunohistochemistry of TGFα in respiratory tract tissue of sodium hypochlorite aerosol-treated rabbits; format: in vivo, New Zealand albino rabbits
Text: as §1

[1] = bronchial tissue, Group 1, oral 10 mg/kg per day
[2] = bronchial tissue, Group 2, oral 40 mg/kg per day
[3] = bronchial tissue, Group 3, oral 80 mg/kg per day
[4] = bronchial tissue, Group 4, oral 100 mg/kg per day
[5] = laryngeal tissue, Group 1, oral 10 mg/kg per day
[6] = laryngeal tissue, Group 2, oral 40 mg/kg per day
[7] = laryngeal tissue, Group 3, oral 80 mg/kg per day
[8] = laryngeal tissue, Group 4, oral 100 mg/kg per day
[9] = laryngeal tissue, Group 5, inhalation 0.05 mg/kg per day
[10] = laryngeal tissue, Group 6, inhalation 0.1 mg/kg per day
[11] = laryngeal tissue, Group 7, inhalation 0.2 mg/kg per day
[12] = laryngeal tissue, Group 8, inhalation 0.4 mg/kg per day
[13] = lung tissue, Group 1, oral 10 mg/kg per day
[14] = lung tissue, Group 2, oral 40 mg/kg per day
[15] = lung tissue, Group 3, oral 80 mg/kg per day
[16] = lung tissue, Group 4, oral 100 mg/kg per day
[17] = lung tissue, Group 6, inhalation 0.1 mg/kg per day
[18] = lung tissue, Group 7, inhalation 0.2 mg/kg per day
[19] = lung tissue, Group 8, inhalation 0.4 mg/kg per day
[20] = nasal cavity tissue, Group 1, oral 10 mg/kg per day
[21] = nasal cavity tissue, Group 2, oral 40 mg/kg per day
[22] = nasal cavity tissue, Group 3, oral 80 mg/kg per day
[23] = nasal cavity tissue, Group 4, oral 100 mg/kg per day
[24] = nasal cavity tissue, Group 5, inhalation 0.05 mg/kg per day
[25] = nasal cavity tissue, Group 6, inhalation 0.1 mg/kg per day
[26] = nasal cavity tissue, Group 7, inhalation 0.2 mg/kg per day
[27] = nasal cavity tissue, Group 8, inhalation 0.4 mg/kg per day
[28] = pharyngeal tissue, Group 1, oral 10 mg/kg per day
[29] = pharyngeal tissue, Group 2, oral 40 mg/kg per day
[30] = pharyngeal tissue, Group 3, oral 80 mg/kg per day
[31] = pharyngeal tissue, Group 4, oral 100 mg/kg per day
[32] = pharyngeal tissue, Group 5, inhalation 0.05 mg/kg per day
[33] = pharyngeal tissue, Group 6, inhalation 0.1 mg/kg per day
[34] = pharyngeal tissue, Group 7, inhalation 0.2 mg/kg per day
[35] = pharyngeal tissue, Group 8, inhalation 0.4 mg/kg per day

C[C@@H](OC1OCCN(Cc2nc(=O)[nH][nH]2)C1c1ccc(F)cc1)c1cc(C(F)(F)F)cc(C(F)(F)F)c1 (stereo in doubt) [Aprepitant, 5-([(2R,3S)-2-((R)-1-[3,5-bis(trifluoromethyl)phenyl]ethoxy)-3-(4-fluorophenyl)morpholino]methyl)-1H-1,2,4-triazol-3(2H)-one]
Percent increase in MMP-7 with respect to the control group (MMP-7; [1]): 504.23% | Percent increase in MMP-7 with respect to the control group (MMP-7; [2]): 406.34% | Percent increase in MMP-7 with respect to the control group (MMP-7; [3]): 398.45% | Percent increase in MMP-7 with respect to the control group (MMP-7; [4]): 289.56% | % Med G5/C: percent increase in marker MMP-7 with respect to the control group (MMP-7; bronchial tissue, Group 5): 549.34% | % Med G6/C: percent increase in marker MMP-7 with respect to the control group (MMP-7; bronchial tissue, Group 6): 467.45% | % Med G7/C: percent increase in marker MMP-7 with respect to the control group (MMP-7; bronchial tissue, Group 7): 356.47% | % Med G8/C: percent increase in marker MMP-7 with respect to the control group (MMP-7; bronchial tissue, Group 8): 241.56% | Percent increase in MMP-7 with respect to the control group (MMP-7; [5]): 1,012.67% | Percent increase in MMP-7 with respect to the control group (MMP-7; [6]): 899.78% | Percent increase in MMP-7 with respect to the control group (MMP-7; [7]): 788.56% | Percent increase in MMP-7 with respect to the control group (MMP-7; [8]): 576.89% | Percent increase in MMP-7 with respect to the control group (MMP-7; [9]): 1,205.45% | Percent increase in MMP-7 with respect to the control group (MMP-7; [10]): 809.54% | Percent increase in MMP-7 with respect to the control group (MMP-7; [11]): 372.23% | Percent increase in MMP-7 with respect to the control group (MMP-7; [12]): 112.25% | Percent increase in MMP-7 with respect to the control group (MMP-7; [13]): 345.90% | Percent increase in MMP-7 with respect to the control group (MMP-7; [14]): 325.50% | Percent increase in MMP-7 with respect to the control group (MMP-7; [15]): 220.38% | Percent increase in MMP-7 with respect to the control group (MMP-7; [16]): 184.56% | Percent increase in MMP-7 with respect to the control group (MMP-7; lung tissue, Group 5, inhalation 0.05 mg/kg per day): 321.48% | Percent increase in MMP-7 with respect to the control group (MMP-7; [17]): 232.63% | Percent increase in MMP-7 with respect to the control group (MMP-7; [18]): 142.07% | Percent increase in MMP-7 with respect to the control group (MMP-7; [19]): 109.05% | Percent increase in MMP-7 with respect to the control group (MMP-7; [20]): 2,267.10% | Percent increase in MMP-7 with respect to the control group (MMP-7; [21]): 1,308.16% | Percent increase in MMP-7 with respect to the control group (MMP-7; [22]): 1,119.62% | Percent increase in MMP-7 with respect to the control group (MMP-7; [23]): 942.01% | Percent increase in MMP-7 with respect to the control group (MMP-7; [24]): 1,835.98% | Percent increase in MMP-7 with respect to the control group (MMP-7; [25]): 1,147.87% | Percent increase in MMP-7 with respect to the control group (MMP-7; [26]): 444.94% | Percent increase in MMP-7 with respect to the control group (MMP-7; [27]): 136.90% | Percent increase in MMP-7 with respect to the control group (MMP-7; [28]): 2,004.34% | Percent increase in MMP-7 with respect to the control group (MMP-7; [29]): 1,591.34% | Percent increase in MMP-7 with respect to the control group (MMP-7; [30]): 1,456.45% | Percent increase in MMP-7 with respect to the control group (MMP-7; [31]): 967.12% | Percent increase in MMP-7 with respect to the control group (MMP-7; [32]): 1,820.78% | Percent increase in MMP-7 with respect to the control group (MMP-7; [33]): 1,109.45% | Percent increase in MMP-7 with respect to the control group (MMP-7; [34]): 450.45% | Percent increase in MMP-7 with respect to the control group (MMP-7; [35]): 121.80% | Percent increase in TGFα with respect to the control group (TGFα; [1]): 1,980.45% | Percent increase in TGFα with respect to the control group (TGFα; [2]): 1,540.45% | Percent increase in TGFα with respect to the control group (TGFα; [3]): 1,190.45% | Percent increase in TGFα with respect to the control group (TGFα; [4]): 873.34% | % Med G5/C: percent increase in marker TGFα with respect to the control group (TGFα; bronchial tissue, Group 5): 1,875.75% | % Med G6/C: percent increase in marker TGFα with respect to the control group (TGFα; bronchial tissue, Group 6): 1,267.45% | % Med G7/C: percent increase in marker TGFα with respect to the control group (TGFα; bronchial tissue, Group 7): 689.78% | % Med G8/C: percent increase in marker TGFα with respect to the control group (TGFα; bronchial tissue, Group 8): 209.45% | Percent increase in TGFα with respect to the control group (TGFα; [5]): 1,875.56% | Percent increase in TGFα with respect to the control group (TGFα; [6]): 1,500.45% | Percent increase in TGFα with respect to the control group (TGFα; [7]): 1,320.32% | Percent increase in TGFα with respect to the control group (TGFα; [8]): 1,101.28% | Percent increase in TGFα with respect to the control group (TGFα; [9]): 1,820.45% | Percent increase in TGFα with respect to the control group (TGFα; [10]): 1,250.74% | Percent increase in TGFα with respect to the control group (TGFα; [11]): 783.78% | Percent increase in TGFα with respect to the control group (TGFα; [12]): 234.67% | Percent increase in TGFα with respect to the control group (TGFα; [13]): 1,717.76% | Percent increase in TGFα with respect to the control group (TGFα; [14]): 1,308.73% | Percent increase in TGFα with respect to the control group (TGFα; [15]): 1,257.29% | Percent increase in TGFα with respect to the control group (TGFα; [16]): 1,195.15% | Percent increase in TGFα with respect to the control group (TGFα; [17]): 937.00% | Percent increase in TGFα with respect to the control group (TGFα; [18]): 402.39% | Percent increase in TGFα with respect to the control group (TGFα; [19]): 147.11% | Percent increase in TGFα with respect to the control group (TGFα; [20]): 2,824.89% | Percent increase in TGFα with respect to the control group (TGFα; [21]): 1,907.98% | Percent increase in TGFα with respect to the control group (TGFα; [22]): 1,347.22% | Percent increase in TGFα with respect to the control group (TGFα; [23]): 952.16% | Percent increase in TGFα with respect to the control group (TGFα; [24]): 2,908.21% | Percent increase in TGFα with respect to the control group (TGFα; [25]): 764.46% | Percent increase in TGFα with respect to the control group (TGFα; [26]): 495.68% | Percent increase in TGFα with respect to the control group (TGFα; [27]): 156.67% | Percent increase in TGFα with respect to the control group (TGFα; [28]): 2,274.76% | Percent increase in TGFα with respect to the control group (TGFα; [29]): 1,907.77% | Percent increase in TGFα with respect to the control group (TGFα; [30]): 1,780.45% | Percent increase in TGFα with respect to the control group (TGFα; [31]): 1,550.34% | Percent increase in TGFα with respect to the control group (TGFα; [32]): 1,946.43% | Percent increase in TGFα with respect to the control group (TGFα; [33]): 1,364.46% | Percent increase in TGFα with respect to the control group (TGFα; [34]): 699.78% | Percent increase in TGFα with respect to the control group (TGFα; [35]): 101.34%
